Patent US20260284003A1, “COMPOSITIONS AND METHOD FOR MANAGEMENT OF PAIN AND ALLERGY” (priority 2023, published 2026)

Experiments:
[1] = test system: Mouse mast cells P815; assay: Inhibition of histamine release from C48/80 activated mast cells; assay type: cell-based; conditions: P815, 80 μg/ml C48/80, 30 min; FIG. 4A-4D
Experimental: Reaction was terminated by placing the cells on ice for 10 mins and centrifuged for 5 minutes at 2400 rpm. 100 μL of cell supernatant was mixed with 50 μL of 4N NaOH and 10 μL of O-Phthaldialdehyde (OPT, 1 mg·mL-1 in methanol, Sigma). By incubation at room temperature for 10 min, 50 μL of 1N HCl was added to stop the reaction. The fluorescence was measured at Ex/Em of 390/460 nm using a microplate reader (FLOUSTAR).

[2] = test system: Ovalbumin Induced Respiratory Allergy; assay: Bronchoalveolar lavage fluid (BALF) cell count, ovalbumin induced respiratory allergy; conditions: BCP 10, PEA 3, BPE 10, BPB 30 mg/kg; for Differential Count, PMN - E / Differential Count, PMN - N / Differential Count, Lymphocytes / Differential Count, Macrophages: BALF; for Differential Count, PMN - E: eosinophil, control 0.50, OVA 1.67; for Differential Count, PMN - N: neutrophil, control 1.00, OVA 5.33; for Differential Count, Lymphocytes: control 1.83, OVA 12.00; for Differential Count, Macrophages: control 3.33, OVA 25.17; for Cellular Count (total cell count of BALF): control 6.93, OVA 44.17
Experimental: BALB/c mice (20-30 g body weight) were housed under standard laboratory conditions (temperature 23.5° C., humidity=58-64%), with 12 h light and 12 h dark cycle, fed with normal diet and water ad libitum.
(§2) Control animals were administered with 2% Gum acacia in PBS. All the animals except in Group I were actively sensitized by an intraperitoneal (i.p.) injection of OVA (20 μg/kg body weight) and Aluminum hydroxide (2 mg/kg body weight) in PBS on 0 and 14th day and were challenged with 1% OVA in PBS on 21st, 22nd, and 23rd using Nebulizer for 1 hour. The treatment drugs and standard drug were administered orally for 5 days (18th to 23rd day).
On day 25, 48 h after final OVA challenge (saline challenge for normal control group), the animals were anesthetized for collection of blood and Bronchoalveolar Lavage (BAL) fluid for biochemical evaluation.
On the day of sacrifice mice were anesthetized, the lungs were gently lavaged three times via the tracheal tube with a volume of 0.7 ml phosphate buffered saline (PBS). BALF was immediately centrifuged at 1500 rpm for 5 min, and the collected supernatant was stored at −70° C. until further analysis. The cell pellet was analysed to determine the total cell count of BALF (Table 9, FIG. 14) and the count of Macrophages, neutrophil, eosinophil, and lymphocyte (Table 10, FIG. 15) counts using a hematology analyzer in BALF fluids.

[3] = test system: Ovalbumin Induced Respiratory Allergy; assay: Organ weight determination, ovalbumin induced respiratory allergy; assay type: in vivo, BALB/c mice; conditions: for organ weight (in words): compared OVA control, FIG. 10, Table 5; for Organ weight, Spleen / Organ weight, Lungs: mean, BCP 10 mg/kg, PEA 3 mg/kg, BPE 10 mg/kg, BPB 30 mg/kg oral 5 days; for Organ weight, Spleen: control 0.26, OVA 0.80; for Organ weight, Lungs: control 0.65, OVA 1.08
Excerpt: It is widely known that lungs and spleen weight increase during allergy.

[4] = test system: inducible nitric oxide; assay: Inhibition of inducible nitric oxide (Griess reaction); conditions: macrophages, nitrite in cell supernatant; FIG. 2A-2C
Experimental: (§3) Mouse macrophage cell line (RAW264.7) was purchased from National Center for Cell Science (NCCS, Pune, India) and maintained as a monolayer culture in Dulbecco's modified minimal essential medium (DMEM, Life Technologies, CA, USA) supplemented with 10% (v/v) fetal bovine serum (FBS; GIBCO/Invitrogen, Carlsbad, CA) at 37° C. in a humidified 5% CO2 incubator.
The Nitrite estimation was carried out using the Griess reaction. To the 50 μL of cell supernatant, Griess reagent I (50 μL) and Griess reagent II (50 μL) were added and incubated for 10 min at room temperature and absorbance were read at 540 nm using Microplate reader.

[5] = test system: TRPV1; assay: TRPV1 expression in spinal tissue lysate (Western blotting); assay type: in vivo, C57BL/6 mice; conditions: normalized to GAPDH, cisplatin = 1, control 0.3, BCP 10 mg, PEA 5 mg, BPE 10 mg, BPB 15 mg, Ibuprofen 30 mg, oral 21 days
Experimental: (§1) In the current study, TRPV1 and COX-2 expression was assessed in the spinal tissue lysate of the animals, using Western blotting. Briefly, proteins from the spinal tissue were separated in a 10% SDS-PAGE and transferred to PVDF membrane. The TRPV1 and COX-2 expressions were probed using specific monoclonal antibodies (ABclonal, Dusseldorf, Germany). GAPDH was used as housekeeping gene control. The expression of TRPV1 and COX-2 were normalized to that of GAPDH, and fold change was calculated w.r.t cisplatin group.

[6] = test system: tumor necrosis factor-α (TNF-α); assay: TNF-α in spinal fluids, cisplatin induced peripheral neuropathy (ELISA); conditions: cisplatin mice, oral 21 days, FIG. 5
Experimental: (§4) As an illustrative example to evaluate the effect of the composition on reducing pain, in-vivo experiments were carried out in Cisplatin induced peripheral neuropathy animal models.
(§5) In the present study, these were estimated in the spinal fluids of the animals using ELISA kits as per the manufacturer's instruction (R&D Systems, Minneapolis, Minnesota, USA).

[7] = test system: Cisplatin induced peripheral neuropathy animal models; assay: Tail-flick test, cisplatin induced peripheral neuropathy; assay type: in vivo, C57BL/6 mice; conditions: tail withdrawal latency; BCP 10 mg, PEA 5 mg, BPE 10 mg, BPB 15 mg, Ibuprofen 30 mg
Experimental: This is a test of acute nociception in which a high-intensity thermal stimulus is directed to the tail of a mouse or a rat. The time from onset of stimulation to a rapid flick/withdrawal of the tail from heat source is recorded. Thermal (radiant heat) sensation of animal tail part was assessed by observation of tail flick response as per D'Aemour and Smith method with minor modifications (Hargreaves et al. A new and sensitive method for measuring thermal nociception in cutaneous hyperalgesia. Pain 32 (1988) 77-88). The one-centimeter distance from the tail terminal region was located on the slit of the plantar device. Thermal sensitivity of mice tail was recorded as tail withdrawal latency. Brisk withdrawal of tail from the plantar device was considered as a progression of neuropathic pain. Cut-off stimuli, i.e., 15 s was maintained to avoid potential tissue damage. Mice were tested after 24 h of treatment injections for the drug-response evaluation.

[8] = test system: Ovalbumin Induced Respiratory Allergy; assay: Evaluation of nasal symptoms, ovalbumin induced respiratory allergy; conditions: BCP 10, PEA 3, BPE 10, BPB 30 mg/kg; for Nasal Redness Score: score 0—normal, 1—faint, 2—medium, 3—dark
Experimental: BALB/c mice (20-30 g body weight) were housed under standard laboratory conditions (temperature 23.5° C., humidity=58-64%), with 12 h light and 12 h dark cycle, fed with normal diet and water ad libitum. […] The number of animals used in each group is 6.
as §2
On day 21, 22 and 23 nasal symptoms were evaluated within a 10-minute period after the OVA challenge. […] Sneezing is characterized by an explosive expiration just after a deep inspiration and nose rubbing is characterized by an external perinasal scratch with either one or both forelimbs of animal. Another parameter that was evaluated was redness of the nose (FIG. 13) was by observing the intensity in redness of nostrils and scoring them as the following: 0—normal, 1—faint, 2—medium, and 3—dark.

[9] = test system: Cisplatin induced peripheral neuropathy animal models; assay: Hot plate test, cisplatin induced peripheral neuropathy; assay type: in vivo, C57BL/6 mice; conditions: reaction latency, 52° C.; BCP 10 mg, PEA 5 mg, BPE 10 mg, BPB 15 mg, Ibuprofen 30 mg
Experimental: Animals are placed on the hot plate one at a time. Latency to respond to the heat stimulus is measured by the amount of time it takes for the animal to lick one of its paws. Animals were placed on a hot-plate apparatus. In order to measure thermal pain, the temperature of the hot plate surface was set to 52° C. The reaction latency as well as the time between when the animals were placed and the onset of paw-licking or jumping behaviors were measured in seconds(s). To minimize tissue damage, a cut-off time of 40 s was adopted (Moureq et al. Alleviation of cisplatin-induced neuropathic pain, neuronal apoptosis, and systemic inflammation in mice by rapamycin., Frontiers in Aging Neuroscience., 14, 2022).

[10] = test system: Interleukin-1β (IL-1β); assay: IL-1β in spinal fluids, cisplatin induced peripheral neuropathy (ELISA); conditions: cisplatin mice, oral 21 days, FIG. 6
Experimental: as §4, §5

[11] = test system: Human epidermal keratinocyte cells (HaCaT); assay: Inhibition of intracellular calcium (H2O2 stimulated, Fluo-8AM); assay type: cell-based; conditions: samples pre-treated 2 hours, 10 mM H2O2 30 mins, FIG. 1A-1D, combination ratio 1:1:0.3
Experimental: Various environmental stimuli or neurotransmitters often cause changes in intracellular calcium concentration in the skin. Keratinocytes, primary cell type found in the outermost layer of the skin. Epidermal keratinocytes express functional sensory receptors, such as TRPV1, TRPV3, and TRPV4. Pain stimulus increases intracellular calcium through TRPV channels. Hydrogen peroxide mediated calcium stimulation was tested. Human epidermal keratinocyte cells (HaCaT) (5×10^4) were seeded in 96 black well plate for overnight. Samples were Pre-treated for 2 hours in 1% DMEM. Cells were stimulated with 10 mM H2O2 for 30 mins, and Fluo-8AM dye was added (HBBS buffer) for 1 hr. After incubation, cells were washed with PBS twice and the fluorescence was measured at the Ex/Em of 485/520 nm.

[12] = test system: COX-2; assay: COX-2 expression in spinal tissue lysate (Western blotting); assay type: in vivo, C57BL/6 mice; conditions: normalized to GAPDH, cisplatin = 1, control 0.7, BCP 10 mg, PEA 5 mg, BPE 10 mg, BPB 15 mg, Ibuprofen 30 mg, oral 21 days
Experimental: as §1

[13] = test system: IL-6; assay: Inhibition of IL-6 in LPS induced RAW 264.7 macrophages (ELISA); conditions: RAW 264.7, LPS 100 ng/mL; FIG. 3A-3D
Experimental: as §3
RAW 264.7 (5×10^5 cells/well) macrophage cells were induced with LPS (100 ng/mL) along with or without different concentrations of Samples. The supernatants were used for IL6 estimation using ELISA kits as per the manufacturer's instruction (R&D Systems, Minneapolis, Minnesota, USA).

[14] = day 21, 10-minute period after OVA challenge, OVA 6.00
[15] = day 21, 10-minute period after OVA challenge, OVA 88.67
[16] = day 22, 10-minute period after OVA challenge, OVA 5.50
[17] = day 22, 10-minute period after OVA challenge, OVA 82.17
[18] = day 23, 10-minute period after OVA challenge, OVA 4.00
[19] = day 23, 10-minute period after OVA challenge, OVA 83.17

SMILES | inhibition of histamine release from mast cells [1] | Differential Count, PMN - E [2] | Differential Count, PMN - N [2] | Differential Count, Lymphocytes [2] | Differential Count, Macrophages [2] | Cellular Count (total cell count of BALF) [2] | organ weight (in words) [3] | Organ weight, Spleen [3] | Organ weight, Lungs [3] | TRPV1 expression (fold change w.r.t cisplatin group) [5] | Tail Flick test Mean Diff., Cisplatin vs. treatment (Tukey's multiple comparisons test) [7] | Number of Sneezing [8, 14] | Nose rubbing [8, 15] | Number of Sneezing [8, 16] | Nose rubbing [8, 17] | Nasal Redness Score ([8]; day 22, OVA 2.17) | Number of Sneezing [8, 18] | Nose rubbing [8, 19] | Nasal Redness Score ([8]; day 23, OVA 1.17) | Hot plate test Mean Diff., Cisplatin vs. treatment (Tukey's multiple comparisons test) [9] | other results
C=C1CC/C=C(\C)CC[C@@H]2[C@@H]1CC2(C)C [BCP, β-Caryophyllene] | dose dependent inhibition of histamine release from mast cells | 1.50 | 1.50 | 4.17 | 11.00 | 18.17 | showed decrease in organ weight | 0.51 | 0.76 | 0.1 | −3.125 | 3.33 | 52.83 | 2.67 | 51.33 | 0.67 | 1.50 | 52.83 | 0.17 | −12.13 | inhibition of nitric oxide levels [4]: showed inhibition of nitric oxide levels; inhibition of tumor necrosis factor-α (TNF-α) [6]: showed inhibition; inhibition of Interleukin-1β (IL-1β) [10]: showed inhibition; inhibition of intracellular calcium levels [11]: showed inhibition of intracellular calcium levels; Cox 2 expression (fold change w.r.t cisplatin group) [12]: 0.8; inhibition of IL6 induced by LPS [13]: lower activity
CCCCCCCCCCCCCCCC(=O)NCCO [PEA, Palmitoylethanolamide] | lower activity | 1.20 | 1.80 | 2.80 | 5.00 | 10.80 | showed decrease in organ weight | 0.50 | 0.83 | 2.8 | −4.167 | 2.60 | 66.40 | 2.80 | 58.40 | 1.00 | 3.00 | 66.40 | 0.80 | −5.958 | inhibition of intracellular calcium levels [11]: showed inhibition of intracellular calcium levels; Cox 2 expression (fold change w.r.t cisplatin group) [12]: 0.3; inhibition of IL6 induced by LPS [13]: dose dependent inhibition of IL6 induced by LPS
